Like-named read-outs stand apart in the source and are kept apart here. Marks after values point to notes of the source that are not given here.
Assays:
[1] = test system: GS1, PS1 and PS3 (overlaid isolates); experiment: Mutual inhibition activity among GS1, PS1 and PS3; type: cell-based
Protocol: Each of the microbes—GS1, PS1 and PS3—was grown in the presence of every other isolate (i.e., GS1 with PS1; GS1 with PS3; and PS1 with PS3). Briefly, isolates GS1, PS1 and PS3 were dotted onto the center of individual petri dishes and allowed to grow for 3 days. Dotted isolates were then killed by placing petri dishes over a chloroform-filled watch glass in a safety cabinet for one hour. Subsequently, overlays of the other two isolates spread across the entire petri dish surface. In this way, each isolate was tested as a potential inhibitor (dotted isolates) in combination with every isolate as a target (overlaid isolates). The growth of the microbial isolates was evaluated for the presence or absence of zones of inhibition at the interphase between the bacterial isolates. […] Results from this analysis show the potential for isolates to coexist without inhibiting one another.

[2] = test system: Rhizoctonia solani; experiment: Pathogen suppressive activity plate assay (zone of inhibition); type: cell-based; settings: for mean inhibitory zone size: Table 4
[3] = test system: Pythium ultimum var. sporangiferum; experiment: as above; type: cell-based
[4] = test system: F. culmorum; experiment: as above; type: cell-based; settings: Table 1; pathogen isolate P61
[5] = test system: Phytophthora sojae; experiment: as above; type: cell-based
[6] = test system: Fusarium graminearum; type: cell-based; design: key to pathogen suppression (symbol): + refers to instances where there is some evidence for inhibition immediately over the surface of the dotted strain, but no clear inhibition zone beyond the dotted colony's edge; settings: for zone of inhibition: Table 1; for pathogen suppression (symbol): Table 4
[7] = test system: Fusarium virguliforme; experiment: Pathogen suppressive activity plate assay (zone of inhibition); type: cell-based; settings: Table 4
[8] = test system: Fusarium oxysporum; experiment: as above; type: cell-based; settings: for zone of inhibition: Table 1; for mean inhibitory zone size: Table 4
[9] = test system: Phytophthora medicaginis; experiment: as above; type: cell-based; settings: for zone of inhibition: Table 1; for mean inhibitory zone size: Table 4
[10] = test system: potato scab; experiment: Potato field trials: percent scab control; type: in vivo; design: concentration or dose not given beside the values
[11] = test system: clinical antimicrobials (antibiotic discs); experiment: Antibiotic disc resistance/susceptibility assay of microbial isolates; type: cell-based
[12] = test system: Sclerotinia sclerotiorum; experiment: Pathogen suppressive activity plate assay (zone of inhibition); type: cell-based; settings: for mean inhibitory zone size: Table 4

**Q.** With Brevibacillus laterosporus [PS3] as the substance, how does the “inhibition of the other members of the combination” value [1] read?
**A.** Its value is “Neither isolate PS3 nor GS3 inhibit”.

**Q.** And the zone of inhibition ([2]; Table 1, pathogen isolate P6)?
**A.** Its zone of inhibition is 12.25 mm.

**Q.** What about the “mean inhibitory zone size” value ([2]; pathogen target isolate P5) of the same substance?
**A.** Its value is 3.25 mm.

**Q.** What about the “mean inhibitory zone size” value ([2]; pathogen target isolate P6) of the same substance?
**A.** Its value is 1.7875 mm.

**Q.** And the “mean inhibitory zone size” value ([2]; pathogen target isolate P12)?
**A.** The value was 1.5 mm.

**Q.** And the zone of inhibition ([3]; Table 1, pathogen isolate P58)?
**A.** Its zone of inhibition is 3.73 mm.

**Q.** What about the “mean inhibitory zone size” value ([3]; Table 4, pathogen target isolate P58) of the same substance?
**A.** Its value is 6.6 mm.

**Q.** What about the zone of inhibition [4] of the same substance?
**A.** The zone of inhibition was 5.48 mm.

**Q.** And the zone of inhibition ([5]; Table 1, pathogen isolate P52)?
**A.** The zone of inhibition was 0 mm.

**Q.** What about the “mean inhibitory zone size” value ([5]; Table 4, pathogen target isolate P52) of the same substance?
**A.** The value was 10.3 mm.

**Q.** And the zone of inhibition ([6]; pathogen isolate P31)?
**A.** The zone of inhibition was 10.35 mm.

**Q.** And the zone of inhibition ([6]; pathogen isolate P34)?
**A.** Its zone of inhibition is 14.58 mm.

**Q.** And the “pathogen suppression (symbol)” value ([6]; pathogen target isolate P30)?
**A.** The value was “+**”.

**Q.** What about the “pathogen suppression (symbol)” value ([6]; pathogen target isolate P31) of the same substance?
**A.** Its value is “+”.

**Q.** What about the “pathogen suppression (symbol)” value ([6]; pathogen target isolate P32) of the same substance?
**A.** The value was “+”.

**Q.** What about the “pathogen suppression (symbol)” value ([6]; pathogen target isolate P33) of the same substance?
**A.** The value was “+”.

**Q.** What about the “pathogen suppression (symbol)” value ([6]; pathogen target isolate P34) of the same substance?
**A.** The value was “+”.

**Q.** And the “pathogen suppression (symbol)” value ([6]; pathogen target isolate P35)?
**A.** The value was “+”.

**Q.** What about the “mean inhibitory zone size” value ([7]; pathogen target isolate P20) of the same substance?
**A.** Its value is 5.2 mm.

**Q.** And the “mean inhibitory zone size” value ([7]; pathogen target isolate P21)?
**A.** Its value is 9.5 mm.

**Q.** And the “mean inhibitory zone size” value ([7]; pathogen target isolate P22)?
**A.** Its value is 8.975 mm.

**Q.** And the “mean inhibitory zone size” value ([7]; pathogen target isolate P23)?
**A.** The value was 6.175 mm.

**Q.** What about the zone of inhibition ([8]; pathogen isolate P27) of the same substance?
**A.** Its zone of inhibition is 0 mm.

**Q.** And the zone of inhibition ([8]; pathogen isolate P29)?
**A.** The zone of inhibition was 0 mm.

**Q.** What about the “mean inhibitory zone size” value ([8]; pathogen target isolate P25) of the same substance?
**A.** Its value is 3.725 mm.

**Q.** What about the “mean inhibitory zone size” value ([8]; pathogen target isolate P26) of the same substance?
**A.** Its value is 4.1 mm.

**Q.** And the “mean inhibitory zone size” value ([8]; pathogen target isolate P28)?
**A.** Its value is 5.6 mm.

**Q.** What about the “mean inhibitory zone size” value ([8]; pathogen target isolate P29) of the same substance?
**A.** Its value is 4.225 mm.

**Q.** And the zone of inhibition ([9]; pathogen isolate P43)?
**A.** Its zone of inhibition is 12.55 mm.

**Q.** And the zone of inhibition ([9]; pathogen isolate P44)?
**A.** The zone of inhibition was 6.53 mm.

**Q.** What about the “mean inhibitory zone size” value ([9]; pathogen target isolate P43) of the same substance?
**A.** The value was 5.6 mm.

**Q.** What about the “mean inhibitory zone size” value ([9]; pathogen target isolate P44) of the same substance?
**A.** The value was 9.125 mm.

**Q.** What about the “Percent Control (reduction in scab severity vs non-inoculated plots)” value ([10]; experiment BPP, disease on non-inoculated tubers 22.2) of the same substance?
**A.** The value was 27%.

**Q.** And the “Percent Control (reduction in scab severity vs non-inoculated plots)” value ([10]; experiment BSP, disease on non-inoculated tubers 24.3)?
**A.** Its value is 40%.

**Q.** And the “Percent Control (reduction in scab severity vs non-inoculated plots)” value ([10]; experiment BWP, disease on non-inoculated tubers 26.7)?
**A.** The value was 30%.

**Q.** What about the “Percent Control (reduction in scab severity vs non-inoculated plots)” value ([10]; experiment RPP, disease on non-inoculated tubers 15.6) of the same substance?
**A.** The value was 23%.

**Q.** What about the “Percent Control (reduction in scab severity vs non-inoculated plots)” value ([10]; experiment RSCRG1, disease on non-inoculated tubers 28.1) of the same substance?
**A.** Its value is 34%.

**Q.** And the “Percent Control (reduction in scab severity vs non-inoculated plots)” value ([10]; experiment RSP, disease on non-inoculated tubers 8.8)?
**A.** Its value is 42%.

**Q.** And the Antibiotic resistance characteristics ([11]; Amoxicillin Clavulanate)?
**A.** The Antibiotic resistance characteristics was “MR (MR-moderately resistant (1-5 mm))”.

**Q.** And the Antibiotic resistance characteristics ([11]; Chloramphenicol)?
**A.** The Antibiotic resistance characteristics was “MS (MS-moderately susceptible (6-10 mm))”.

**Q.** What about the Antibiotic resistance characteristics ([11]; Erythromycin) of the same substance?
**A.** Its Antibiotic resistance characteristics is “S (S-susceptible (>10 mm))”.

**Q.** And the Antibiotic resistance characteristics ([11]; Kanamycin)?
**A.** The Antibiotic resistance characteristics was “S (S-susceptible (>10 mm))”.

**Q.** What about the Antibiotic resistance characteristics ([11]; Novobiocin 5) of the same substance?
**A.** Its Antibiotic resistance characteristics is “S (S-susceptible (>10 mm))”.

**Q.** What about the Antibiotic resistance characteristics ([11]; Novobiocin 30) of the same substance?
**A.** Its Antibiotic resistance characteristics is “S (S-susceptible (>10 mm))”.

**Q.** And the Antibiotic resistance characteristics ([11]; Rifampin)?
**A.** Its Antibiotic resistance characteristics is “MR (MR-moderately resistant (1-5 mm))”.

**Q.** And the Antibiotic resistance characteristics ([11]; Streptomycin)?
**A.** The Antibiotic resistance characteristics was “S (S-susceptible (>10 mm))”.

**Q.** What about the Antibiotic resistance characteristics ([11]; Tetracycline) of the same substance?
**A.** Its Antibiotic resistance characteristics is “MR (MR-moderately resistant (1-5 mm))”.

**Q.** What about the Antibiotic resistance characteristics ([11]; Vancomycin 5) of the same substance?
**A.** Its Antibiotic resistance characteristics is “MS (MS-moderately susceptible (6-10 mm))”.

**Q.** And the Antibiotic resistance characteristics ([11]; Vancomycin 30)?
**A.** The Antibiotic resistance characteristics was “S (S-susceptible (>10 mm))”.

**Q.** What about the zone of inhibition ([12]; Table 1, pathogen isolate P19) of the same substance?
**A.** Its zone of inhibition is 11.48 mm.

**Q.** And the “mean inhibitory zone size” value ([12]; pathogen target isolate P16)?
**A.** The value was 4.517 mm.

**Q.** And the “mean inhibitory zone size” value ([12]; pathogen target isolate P17)?
**A.** Its value is 5.567 mm.

**Q.** What about the “mean inhibitory zone size” value ([12]; pathogen target isolate P18) of the same substance?
**A.** The value was 4.975 mm.

**Q.** What about the “mean inhibitory zone size” value ([12]; pathogen target isolate P19) of the same substance?
**A.** The value was 5.8 mm.
